Measurements reported in publication PMC10905675, “INX-315, a Selective CDK2 Inhibitor, Induces Cell Cycle Arrest and Senescence in Solid Tumors” (Cancer Discovery, 2023).

Key:
Test in all cases: SelectScreen LanthaScreen Binding
Details in all cases: INX-0315 at 100nM
ABL1 M351T = molecular target: T1, ABL1 M351T (Homo sapiens, UniProt P00519, M351T)
T1 construct: purchased Thermo Fisher Scientific SelectScreen (plus Nanosyn / Reaction Biology for CDK/cyclin lines)
From the text: (§1) INX-315 was first evaluated in the SelectScreen Biochemical Kinase Profiling at Thermo Fisher Scientific (Madison, WI). The primary screen consisted of INX-315 dosed at a single concentration of 100 nmol/L in 1% DMSO across each platform within the SelectScreen array of assays, LanthaScreen Eu Kinase Binding Assay; AdaptaScreen; and Z'LyteScreen using preestablished conditions at Thermo Fisher Scientific as shown in Supplementary Table S2. […] The follow-up screen consisted of 10-point dose–response curves for INX-315 from 1 µmol/L to 0.0495 nmol/L.

ACVR2A = molecular target: T2, ACVR2A (Homo sapiens, UniProt P27037)
T2 construct: purchased Thermo Fisher Scientific SelectScreen (plus Nanosyn / Reaction Biology for CDK/cyclin lines)
From the text: as §1

ADCK3 = molecular target: T3, ADCK3 (Homo sapiens, UniProt Q8NI60)
T3 construct: purchased Thermo Fisher Scientific SelectScreen (plus Nanosyn / Reaction Biology for CDK/cyclin lines)
From the text: as §1

ALK L1196M = molecular target: T4, ALK L1196M (Homo sapiens, UniProt Q9UM73, L1196M)
T4 construct: purchased Thermo Fisher Scientific SelectScreen (plus Nanosyn / Reaction Biology for CDK/cyclin lines)
From the text: as §1

AMPK (A1/B1/G3) = molecular target: T5, AMPK (A1/B1/G3) (Homo sapiens, UniProt Q13131)
T5 construct: purchased Thermo Fisher Scientific SelectScreen (plus Nanosyn / Reaction Biology for CDK/cyclin lines)
From the text: as §1

BMPR2 = molecular target: T6, BMPR2 (Homo sapiens, UniProt Q13873)
T6 construct: purchased Thermo Fisher Scientific SelectScreen (plus Nanosyn / Reaction Biology for CDK/cyclin lines)
From the text: as §1

CAMK2G (CaMKII gamma) = molecular target: T7, CAMK2G (CaMKII gamma) (Homo sapiens, UniProt Q13555)
T7 construct: purchased Thermo Fisher Scientific SelectScreen (plus Nanosyn / Reaction Biology for CDK/cyclin lines)
From the text: as §1

CDK2/cyclin A1 = molecular target: T8, CDK2/cyclin A1 (Homo sapiens, UniProt P24941)
T8 construct: host or cells: HEK293
From the text: as §1

CDK9/cyclin K = molecular target: T9, CDK9/cyclin K (Homo sapiens, UniProt P50750)
T9 construct: purchased Thermo Fisher Scientific SelectScreen (plus Nanosyn / Reaction Biology for CDK/cyclin lines)
From the text: as §1

DDR2 N456S = molecular target: T10, DDR2 N456S (Homo sapiens, UniProt Q16832, N456S)
T10 construct: purchased Thermo Fisher Scientific SelectScreen (plus Nanosyn / Reaction Biology for CDK/cyclin lines)
From the text: as §1

[1] = molecular target: T11, EGFR (ErbB1) d747-749 A750P (Homo sapiens, UniProt P00533, A750P/DEL747-749)
T11 construct: purchased Thermo Fisher Scientific SelectScreen (plus Nanosyn / Reaction Biology for CDK/cyclin lines)
From the text: as §1

EPHA6 = molecular target: T12, EPHA6 (Homo sapiens, UniProt Q9UF33)
T12 construct: purchased Thermo Fisher Scientific SelectScreen (plus Nanosyn / Reaction Biology for CDK/cyclin lines)
From the text: as §1

EPHA7 = molecular target: T13, EPHA7 (Homo sapiens, UniProt Q15375)
T13 construct: purchased Thermo Fisher Scientific SelectScreen (plus Nanosyn / Reaction Biology for CDK/cyclin lines)
From the text: as §1

FGFR3 G697C = molecular target: T14, FGFR3 G697C (Homo sapiens, UniProt P22607, G697C)
T14 construct: purchased Thermo Fisher Scientific SelectScreen (plus Nanosyn / Reaction Biology for CDK/cyclin lines)
From the text: as §1

GAK = molecular target: T15, GAK (Homo sapiens, UniProt O14976)
T15 construct: purchased Thermo Fisher Scientific SelectScreen (plus Nanosyn / Reaction Biology for CDK/cyclin lines)
From the text: as §1

IRAK3 = molecular target: T16, IRAK3 (Homo sapiens, UniProt Q9Y616)
T16 construct: purchased Thermo Fisher Scientific SelectScreen (plus Nanosyn / Reaction Biology for CDK/cyclin lines)
From the text: as §1

KIT D816H = molecular target: T17, KIT D816H (Homo sapiens, UniProt P10721, D816H)
T17 construct: purchased Thermo Fisher Scientific SelectScreen (plus Nanosyn / Reaction Biology for CDK/cyclin lines)
From the text: as §1

KIT D820E = molecular target: T18, KIT D820E (Homo sapiens, UniProt P10721, D820E)
T18 construct: purchased Thermo Fisher Scientific SelectScreen (plus Nanosyn / Reaction Biology for CDK/cyclin lines)
From the text: as §1

KIT N822K = molecular target: T19, KIT N822K (Homo sapiens, UniProt P10721, N822K)
T19 construct: purchased Thermo Fisher Scientific SelectScreen (plus Nanosyn / Reaction Biology for CDK/cyclin lines)
From the text: as §1

MAP2K2 (MEK2) = molecular target: T20, MAP2K2 (MEK2) (Homo sapiens, UniProt P36507)
T20 construct: purchased Thermo Fisher Scientific SelectScreen (plus Nanosyn / Reaction Biology for CDK/cyclin lines)
From the text: as §1

MAP3K2 (MEKK2) = molecular target: T21, MAP3K2 (MEKK2) (Homo sapiens, UniProt Q9Y2U5)
T21 construct: purchased Thermo Fisher Scientific SelectScreen (plus Nanosyn / Reaction Biology for CDK/cyclin lines)
From the text: as §1

[2] = molecular target: T22, MAP3K7/MAP3K7IP1 (TAK1-TAB1) (Homo sapiens, UniProt O43318)
T22 construct: purchased Thermo Fisher Scientific SelectScreen (plus Nanosyn / Reaction Biology for CDK/cyclin lines)
From the text: as §1

MAPK8 (JNK1) = molecular target: T23, MAPK8 (JNK1) (Homo sapiens, UniProt P45983)
T23 construct: purchased Thermo Fisher Scientific SelectScreen (plus Nanosyn / Reaction Biology for CDK/cyclin lines)
From the text: as §1

MET D1228H = molecular target: T24, MET D1228H (Homo sapiens, UniProt P08581, D1228H)
T24 construct: purchased Thermo Fisher Scientific SelectScreen (plus Nanosyn / Reaction Biology for CDK/cyclin lines)
From the text: as §1

MKNK2 (MNK2) = molecular target: T25, MKNK2 (MNK2) (Homo sapiens, UniProt Q9HBH9)
T25 construct: purchased Thermo Fisher Scientific SelectScreen (plus Nanosyn / Reaction Biology for CDK/cyclin lines)
From the text: as §1

MYLK (MLCK) = molecular target: T26, MYLK (MLCK) (Homo sapiens, UniProt Q15746)
T26 construct: purchased Thermo Fisher Scientific SelectScreen (plus Nanosyn / Reaction Biology for CDK/cyclin lines)
From the text: as §1

NUAK2 = molecular target: T27, NUAK2 (Homo sapiens, UniProt Q9H093)
T27 construct: purchased Thermo Fisher Scientific SelectScreen (plus Nanosyn / Reaction Biology for CDK/cyclin lines)
From the text: as §1

PKMYT1 = molecular target: T28, PKMYT1 (Homo sapiens, UniProt Q99640)
T28 construct: purchased Thermo Fisher Scientific SelectScreen (plus Nanosyn / Reaction Biology for CDK/cyclin lines)
From the text: as §1

PKN2 (PRK2) = molecular target: T29, PKN2 (PRK2) (Homo sapiens, UniProt Q16513)
T29 construct: purchased Thermo Fisher Scientific SelectScreen (plus Nanosyn / Reaction Biology for CDK/cyclin lines)
From the text: as §1

PRKACB (PRKAC beta) = molecular target: T30, PRKACB (PRKAC beta) (Homo sapiens, UniProt P22694)
T30 construct: purchased Thermo Fisher Scientific SelectScreen (plus Nanosyn / Reaction Biology for CDK/cyclin lines)
From the text: as §1

SLK = molecular target: T31, SLK (Homo sapiens, UniProt Q9H2G2)
T31 construct: purchased Thermo Fisher Scientific SelectScreen (plus Nanosyn / Reaction Biology for CDK/cyclin lines)
From the text: as §1

STK17B (DRAK2) = molecular target: T32, STK17B (DRAK2) (Homo sapiens, UniProt O94768)
T32 construct: purchased Thermo Fisher Scientific SelectScreen (plus Nanosyn / Reaction Biology for CDK/cyclin lines)
From the text: as §1

STK38L (NDR2) = molecular target: T33, STK38L (NDR2) (Homo sapiens, UniProt Q9Y2H1)
T33 construct: purchased Thermo Fisher Scientific SelectScreen (plus Nanosyn / Reaction Biology for CDK/cyclin lines)
From the text: as §1

TAOK1 = molecular target: T34, TAOK1 (Homo sapiens, UniProt Q7L7X3)
T34 construct: purchased Thermo Fisher Scientific SelectScreen (plus Nanosyn / Reaction Biology for CDK/cyclin lines)
From the text: as §1

TEK (TIE2) Y1108F = molecular target: T35, TEK (TIE2) Y1108F (Homo sapiens, UniProt Q02763, Y1108F)
T35 construct: purchased Thermo Fisher Scientific SelectScreen (plus Nanosyn / Reaction Biology for CDK/cyclin lines)
From the text: as §1

TGFBR2 = molecular target: T36, TGFBR2 (Homo sapiens, UniProt P37173)
T36 construct: purchased Thermo Fisher Scientific SelectScreen (plus Nanosyn / Reaction Biology for CDK/cyclin lines)
From the text: as §1

WNK1 = molecular target: T37, WNK1 (Homo sapiens, UniProt Q9H4A3)
T37 construct: purchased Thermo Fisher Scientific SelectScreen (plus Nanosyn / Reaction Biology for CDK/cyclin lines)
From the text: as §1

T2 sequence (P27037 20-513): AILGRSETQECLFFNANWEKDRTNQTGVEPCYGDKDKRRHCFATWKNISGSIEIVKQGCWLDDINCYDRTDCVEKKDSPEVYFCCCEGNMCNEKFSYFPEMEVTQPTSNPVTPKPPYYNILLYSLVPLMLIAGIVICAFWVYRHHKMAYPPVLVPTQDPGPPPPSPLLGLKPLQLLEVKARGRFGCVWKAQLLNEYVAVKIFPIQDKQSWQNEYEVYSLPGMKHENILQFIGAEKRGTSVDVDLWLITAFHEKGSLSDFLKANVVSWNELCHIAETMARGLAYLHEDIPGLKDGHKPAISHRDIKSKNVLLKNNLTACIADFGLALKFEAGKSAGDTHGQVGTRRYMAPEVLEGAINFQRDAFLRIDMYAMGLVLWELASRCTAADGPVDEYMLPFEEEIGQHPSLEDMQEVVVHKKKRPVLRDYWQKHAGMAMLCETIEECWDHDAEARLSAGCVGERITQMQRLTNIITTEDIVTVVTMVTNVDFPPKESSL
T33 sequence (Q9Y2H1 whole entry): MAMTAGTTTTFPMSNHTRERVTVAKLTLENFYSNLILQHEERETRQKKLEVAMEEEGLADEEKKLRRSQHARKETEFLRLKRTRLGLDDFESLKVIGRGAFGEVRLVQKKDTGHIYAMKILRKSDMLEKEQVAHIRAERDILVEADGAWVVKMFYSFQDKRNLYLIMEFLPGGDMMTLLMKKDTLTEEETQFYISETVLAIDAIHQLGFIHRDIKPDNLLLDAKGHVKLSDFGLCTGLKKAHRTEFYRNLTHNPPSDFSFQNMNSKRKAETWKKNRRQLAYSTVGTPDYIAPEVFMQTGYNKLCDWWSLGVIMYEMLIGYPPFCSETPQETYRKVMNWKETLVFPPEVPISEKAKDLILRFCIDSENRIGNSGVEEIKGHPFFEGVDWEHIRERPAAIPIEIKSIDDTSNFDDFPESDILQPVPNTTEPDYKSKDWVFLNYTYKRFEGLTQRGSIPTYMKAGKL
T29 sequence (Q16513 whole entry): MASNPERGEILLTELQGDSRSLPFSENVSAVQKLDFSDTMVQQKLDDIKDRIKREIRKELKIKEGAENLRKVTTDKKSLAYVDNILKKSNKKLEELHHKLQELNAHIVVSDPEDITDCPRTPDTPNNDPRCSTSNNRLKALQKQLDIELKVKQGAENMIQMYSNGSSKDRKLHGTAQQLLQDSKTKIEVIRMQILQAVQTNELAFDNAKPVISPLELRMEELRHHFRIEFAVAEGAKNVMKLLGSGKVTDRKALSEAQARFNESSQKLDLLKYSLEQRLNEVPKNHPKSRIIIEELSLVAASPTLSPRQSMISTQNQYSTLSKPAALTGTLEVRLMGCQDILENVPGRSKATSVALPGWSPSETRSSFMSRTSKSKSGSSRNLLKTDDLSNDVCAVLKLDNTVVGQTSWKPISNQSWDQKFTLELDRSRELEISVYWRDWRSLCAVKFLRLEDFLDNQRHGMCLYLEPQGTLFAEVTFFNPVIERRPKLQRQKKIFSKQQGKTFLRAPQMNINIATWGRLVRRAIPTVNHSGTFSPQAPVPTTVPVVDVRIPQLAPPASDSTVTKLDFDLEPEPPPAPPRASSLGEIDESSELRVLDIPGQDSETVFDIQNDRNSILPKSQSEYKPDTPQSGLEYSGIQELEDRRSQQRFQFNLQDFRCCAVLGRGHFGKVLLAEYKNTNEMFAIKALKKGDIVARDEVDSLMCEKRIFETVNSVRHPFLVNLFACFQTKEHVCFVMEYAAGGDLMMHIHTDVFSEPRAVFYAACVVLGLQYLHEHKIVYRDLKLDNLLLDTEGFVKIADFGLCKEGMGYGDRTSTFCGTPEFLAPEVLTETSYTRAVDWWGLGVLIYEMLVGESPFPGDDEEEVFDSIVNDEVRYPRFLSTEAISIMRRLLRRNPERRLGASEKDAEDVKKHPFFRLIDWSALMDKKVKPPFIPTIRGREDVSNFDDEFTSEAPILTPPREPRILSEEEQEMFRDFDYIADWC
T13 sequence (Q15375 28-998): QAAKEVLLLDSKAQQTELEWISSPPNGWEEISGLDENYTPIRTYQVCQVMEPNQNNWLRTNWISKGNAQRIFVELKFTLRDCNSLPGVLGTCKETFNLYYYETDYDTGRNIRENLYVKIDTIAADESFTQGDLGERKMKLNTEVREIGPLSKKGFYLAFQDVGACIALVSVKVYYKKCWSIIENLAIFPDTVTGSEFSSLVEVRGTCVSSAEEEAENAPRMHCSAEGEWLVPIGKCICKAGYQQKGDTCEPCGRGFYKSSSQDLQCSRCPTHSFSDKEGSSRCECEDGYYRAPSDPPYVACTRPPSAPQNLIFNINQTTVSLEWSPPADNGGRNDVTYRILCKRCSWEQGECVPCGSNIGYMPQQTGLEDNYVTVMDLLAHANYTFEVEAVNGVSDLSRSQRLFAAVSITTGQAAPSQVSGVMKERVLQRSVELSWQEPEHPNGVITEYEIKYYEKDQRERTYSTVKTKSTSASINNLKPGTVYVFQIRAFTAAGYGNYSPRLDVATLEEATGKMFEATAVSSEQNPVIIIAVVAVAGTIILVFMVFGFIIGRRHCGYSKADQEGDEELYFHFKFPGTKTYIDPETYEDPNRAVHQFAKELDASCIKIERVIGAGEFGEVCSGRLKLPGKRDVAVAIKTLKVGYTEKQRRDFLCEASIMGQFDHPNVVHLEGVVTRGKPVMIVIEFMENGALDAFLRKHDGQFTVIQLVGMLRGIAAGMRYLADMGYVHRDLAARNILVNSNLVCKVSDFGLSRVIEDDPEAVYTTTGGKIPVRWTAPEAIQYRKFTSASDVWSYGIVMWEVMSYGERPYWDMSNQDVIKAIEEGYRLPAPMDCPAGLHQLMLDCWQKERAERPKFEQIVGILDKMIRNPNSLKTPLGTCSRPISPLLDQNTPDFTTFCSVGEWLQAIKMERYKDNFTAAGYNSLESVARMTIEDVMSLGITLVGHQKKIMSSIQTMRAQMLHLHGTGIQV
T3 sequence (Q8NI60 163-647): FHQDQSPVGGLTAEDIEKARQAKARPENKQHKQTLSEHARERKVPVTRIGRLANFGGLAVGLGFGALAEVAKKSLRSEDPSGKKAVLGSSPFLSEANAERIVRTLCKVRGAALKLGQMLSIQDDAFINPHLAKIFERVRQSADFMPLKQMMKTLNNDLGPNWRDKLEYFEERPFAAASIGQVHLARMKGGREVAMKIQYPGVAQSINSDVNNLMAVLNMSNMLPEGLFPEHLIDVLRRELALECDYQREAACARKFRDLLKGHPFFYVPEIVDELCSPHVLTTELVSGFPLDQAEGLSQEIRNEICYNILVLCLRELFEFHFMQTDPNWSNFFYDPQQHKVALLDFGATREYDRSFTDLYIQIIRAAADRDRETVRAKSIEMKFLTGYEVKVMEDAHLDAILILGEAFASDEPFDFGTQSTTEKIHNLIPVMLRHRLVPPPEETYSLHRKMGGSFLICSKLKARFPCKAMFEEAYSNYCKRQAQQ
T25 sequence (Q9HBH9 whole entry): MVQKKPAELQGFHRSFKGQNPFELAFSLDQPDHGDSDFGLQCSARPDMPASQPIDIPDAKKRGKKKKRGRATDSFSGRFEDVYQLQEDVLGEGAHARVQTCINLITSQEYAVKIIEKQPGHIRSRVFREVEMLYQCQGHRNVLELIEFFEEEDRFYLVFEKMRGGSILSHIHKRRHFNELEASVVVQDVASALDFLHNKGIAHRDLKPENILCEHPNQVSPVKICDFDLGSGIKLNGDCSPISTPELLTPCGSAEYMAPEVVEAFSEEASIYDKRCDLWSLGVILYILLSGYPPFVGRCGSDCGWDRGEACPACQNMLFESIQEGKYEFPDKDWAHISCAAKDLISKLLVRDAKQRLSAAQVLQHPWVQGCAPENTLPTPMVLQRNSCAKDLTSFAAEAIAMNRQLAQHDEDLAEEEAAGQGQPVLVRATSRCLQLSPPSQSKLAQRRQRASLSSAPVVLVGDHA
T6 sequence (Q13873 27-1038): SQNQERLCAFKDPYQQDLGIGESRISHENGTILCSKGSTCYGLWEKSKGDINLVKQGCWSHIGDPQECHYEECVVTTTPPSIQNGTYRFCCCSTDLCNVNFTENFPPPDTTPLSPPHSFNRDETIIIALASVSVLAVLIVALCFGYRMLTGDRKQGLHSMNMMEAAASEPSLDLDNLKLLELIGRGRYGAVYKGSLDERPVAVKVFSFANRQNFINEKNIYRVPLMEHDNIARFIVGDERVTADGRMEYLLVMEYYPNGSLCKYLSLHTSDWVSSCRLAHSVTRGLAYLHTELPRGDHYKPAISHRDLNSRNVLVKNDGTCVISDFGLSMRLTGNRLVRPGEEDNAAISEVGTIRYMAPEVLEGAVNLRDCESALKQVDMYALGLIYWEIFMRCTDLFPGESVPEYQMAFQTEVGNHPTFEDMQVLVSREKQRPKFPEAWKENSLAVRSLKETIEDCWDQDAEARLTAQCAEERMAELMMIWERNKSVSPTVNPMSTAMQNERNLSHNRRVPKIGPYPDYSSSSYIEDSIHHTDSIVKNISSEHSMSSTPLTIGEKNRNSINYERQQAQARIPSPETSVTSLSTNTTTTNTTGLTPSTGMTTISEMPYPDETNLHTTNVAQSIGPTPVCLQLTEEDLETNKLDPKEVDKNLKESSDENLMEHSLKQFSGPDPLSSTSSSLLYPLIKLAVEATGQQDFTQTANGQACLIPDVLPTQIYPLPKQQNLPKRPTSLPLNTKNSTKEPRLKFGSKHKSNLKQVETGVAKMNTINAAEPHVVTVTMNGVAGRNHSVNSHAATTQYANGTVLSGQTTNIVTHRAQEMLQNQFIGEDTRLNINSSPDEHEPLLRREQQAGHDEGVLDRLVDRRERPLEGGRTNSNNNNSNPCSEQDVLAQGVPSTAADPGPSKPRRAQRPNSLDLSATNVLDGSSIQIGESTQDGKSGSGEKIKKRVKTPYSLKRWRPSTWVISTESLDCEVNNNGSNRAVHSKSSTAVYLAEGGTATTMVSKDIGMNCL

`NS(=O)(=O)c1ccc(Nc2ncc3cc4n(c3n2)C2(CCCCC2)C(=O)NN4)cc1` [INX-315] gave an inhibition at 0.1 µM (ABL1 M351T) of 13%, an inhibition at 0.1 µM (ACVR2A) of 3% and an inhibition at 0.1 µM (ADCK3) of 49%. It also gave an inhibition at 0.1 µM (ALK L1196M) of 7%, an inhibition at 0.1 µM (AMPK (A1/B1/G3)) of 19% and an inhibition at 0.1 µM (BMPR2) of 17%. For the same compound, the inhibition at 0.1 µM (CAMK2G (CaMKII gamma)) was -1%, the inhibition at 0.1 µM (CDK2/cyclin A1) was 94% and the inhibition at 0.1 µM (CDK9/cyclin K) was 38%. The inhibition at 0.1 µM (DDR2 N456S) was 14%, the inhibition at 0.1 µM [1] was 12% and the inhibition at 0.1 µM (EPHA6) was 10%. For the same compound, the inhibition at 0.1 µM (EPHA7) was 9%, the inhibition at 0.1 µM (FGFR3 G697C) was 13% and the inhibition at 0.1 µM (GAK) was 38%. It also gave an inhibition at 0.1 µM (IRAK3) of 45%, an inhibition at 0.1 µM (KIT D816H) of 38% and an inhibition at 0.1 µM (KIT D820E) of 12%. It also gave an inhibition at 0.1 µM (KIT N822K) of 17%, an inhibition at 0.1 µM (MAP2K2 (MEK2)) of 0% and an inhibition at 0.1 µM (MAP3K2 (MEKK2)) of 12%. It also gave an inhibition at 0.1 µM [2] of 14%, an inhibition at 0.1 µM (MAPK8 (JNK1)) of 18% and an inhibition at 0.1 µM (MET D1228H) of -6%. It also gave an inhibition at 0.1 µM (MKNK2 (MNK2)) of 2%, an inhibition at 0.1 µM (MYLK (MLCK)) of 6% and an inhibition at 0.1 µM (NUAK2) of 35%. For the same compound, the inhibition at 0.1 µM (PKMYT1) was -2%, the inhibition at 0.1 µM (PKN2 (PRK2)) was 11% and the inhibition at 0.1 µM (PRKACB (PRKAC beta)) was 1%. For the same compound, the inhibition at 0.1 µM (SLK) was 22%, the inhibition at 0.1 µM (STK17B (DRAK2)) was 4% and the inhibition at 0.1 µM (STK38L (NDR2)) was 0%. It also gave an inhibition at 0.1 µM (TAOK1) of 22%, an inhibition at 0.1 µM (TEK (TIE2) Y1108F) of 2% and an inhibition at 0.1 µM (TGFBR2) of 7%. For the same compound, the inhibition at 0.1 µM (WNK1) was 4%.
